The values below come from patent US20250333388A1, “OXADIAZOLONE COMPOUNDS AND HERBICIDAL COMPOSITIONS AND USES THEREOF” (SHANDONG BINNONG TECHNOLOGY CO., LTD., priority 2023, published 2025).

SMILES strings stand for the structures.

Holding throughout (format): in vivo
One data set has as its system abutilon. The data set can be described thus: Test of herbicidal activity, post-seedling stem and leaf spray in greenhouse, abutilon. The note with it: post-seedling stem and leaf spray. On the procedure:
(§1) Seeds of broadleaf weeds (abutilon, Solanum nigrum) or gramineous weeds (crabgrass, barnyard grass) were sown into nutrient soil in plastic cups, respectively, and then covered with soil, compacted, watered, and further cultivated in a greenhouse by conventional methods. The stems and leaves of the weeds were sprayed when the weeds reached the 2- to 3-leaf stage. The test compounds of the present application were dissolved in acetone respectively, followed by addition of Tween 80. The solution was diluted with a certain amount of water to a certain solubility, and then sprayed onto the plants using a spray tower. The test was repeated three times. After drying naturally in the shade, the plants were put in a greenhouse and managed according to conventional methods. The growth and development of weeds were observed, and the control effect of the test agent on weeds was checked visually periodically, which was expressed by 0-100%, with “0” representing no control effect, and “100%” representing complete killing or severe inhibition.

Another data set relates to Solanum nigrum. Description: Test of herbicidal activity, post-seedling stem and leaf spray in greenhouse, Solanum nigrum. The note with it: post-seedling stem and leaf spray. As to the method: as §1
A further data set deals with crabgrass. Description: Test of herbicidal activity, post-seedling stem and leaf spray in greenhouse, crabgrass. The note with it: post-seedling stem and leaf spray. On the procedure: as §1
For the next data set, the system named is barnyard grass. Description: Test of herbicidal activity, post-seedling stem and leaf spray in greenhouse, barnyard grass. The note with it: post-seedling stem and leaf spray. On the procedure: as §1
The subject of another data set is corn. The data set can be described thus: Safety testing on corn, stem and leaf spray in greenhouse. The note with it: for Corn (%) safety (crop damage): stem and leaf spray. As to the method:
(§2) The seeds of corn and rice were sown into nutrient soil in plastic cups, respectively, then covered with soil, compacted, watered, and further cultivated in a greenhouse by conventional methods. The stems and leaves of the crops were sprayed when the crops reached the 2- to 3-leaf stage. The test compounds of the present application were dissolved in acetone, followed by addition of Tween 80. The solution was then diluted with a certain amount of water to a certain solubility, and sprayed onto the plants using a spray tower. The test was repeated three times. After drying naturally in the shade, the plants were put in a greenhouse and managed according to conventional methods. The growth and development of corn and rice were observed, and the safety of the test agent on corn and rice was checked visually periodically. A safety grading standard was represented by 0-100%, with “O” representing no damage to crops, and “100%” representing complete killing or severe inhibition of crops.

A further data set concerns rice. The data set can be described thus: Safety testing on rice, stem and leaf spray in greenhouse. The note with it: for Rice (%) safety (crop damage): stem and leaf spray. As to the method: as §2
[1] abbreviates: dose 300 g a.i/ha, 0 = no control effect, 100% = complete killing or severe inhibition.
The mark [2] stands for this setting: dose 300 g a.i/ha, 0 = no damage to crops, 100% = complete killing or severe inhibition.
Where [3] appears, read: at different doses, as compared to Control compounds A, B, and C, summary of Table 6.

For `Cc1nn(C)c(O)c1C(=O)c1ccc(S(C)(=O)=O)cc1Cl` [Control compound B, reference compound], the “Abutilon (%) control effect” value in the data set on abutilon (dose 37.5 g a.i/ha) was 45%; in the data set on abutilon (dose 75 g a.i/ha), 55%; in the data set with abutilon (dose 150 g a.i/ha) it was 75%; in the data set on abutilon (setting [1]), 85%. Further, the “Solanum nigrum (%) control effect” value is reported as 40% with Solanum nigrum (dose 37.5 g a.i/ha), 50% in the data set on Solanum nigrum (dose 75 g a.i/ha), 65% in the data set with Solanum nigrum (dose 150 g a.i/ha) and 70% in the data set with Solanum nigrum (dose 300 g a.i/ha). Moreover, the “Crabgrass (%) control effect” value is 5% in the data set on crabgrass (dose 37.5 g a.i/ha), 15% with crabgrass (dose 75 g a.i/ha), 40% in the data set with crabgrass (dose 150 g a.i/ha) and 45% in the data set on crabgrass (dose 300 g a.i/ha). In addition, the “Barnyard grass (%) control effect” value in the data set on barnyard grass (dose 37.5 g a.i/ha) is 10%; in the data set on barnyard grass (dose 75 g a.i/ha), 25%; with barnyard grass (dose 150 g a.i/ha), 45%; with barnyard grass (dose 300 g a.i/ha) it was 55%. Besides, the “Corn (%) safety (crop damage)” value is given as 0% with corn (dose 37.5 g a.i/ha), 0% with corn (dose 75 g a.i/ha), 0% with corn (dose 150 g a.i/ha) and 2% in the data set on corn (setting [2]). The “Rice (%) safety (crop damage)” value is on record as 10% in the data set with rice (dose 37.5 g a.i/ha), 20% with rice (dose 75 g a.i/ha), 40% in the data set on rice (dose 150 g a.i/ha) and 55% in the data set on rice (dose 300 g a.i/ha).
Turning to `CS(=O)(=O)c1ccc(C(=O)C2C(=O)CCCC2=O)c(Cl)c1CN1CCOCC1` [Control compound C, reference compound], the “Abutilon (%) control effect” value turned out to be 45% with abutilon (dose 37.5 g a.i/ha), 55% with abutilon (dose 75 g a.i/ha), 70% with abutilon (dose 150 g a.i/ha) and 90% with abutilon (setting [1]). The “Solanum nigrum (%) control effect” value in the data set with Solanum nigrum (dose 37.5 g a.i/ha) worked out at 40%; in the data set with Solanum nigrum (dose 75 g a.i/ha), 50%; in the data set with Solanum nigrum (dose 150 g a.i/ha), 65%; in the data set with Solanum nigrum (dose 300 g a.i/ha), 85%. For the same compound, the “Crabgrass (%) control effect” value is listed as 20% in the data set on crabgrass (dose 37.5 g a.i/ha), 55% in the data set with crabgrass (dose 75 g a.i/ha), 65% in the data set on crabgrass (dose 150 g a.i/ha) and 70% in the data set on crabgrass (dose 300 g a.i/ha). Besides, the “Barnyard grass (%) control effect” value with barnyard grass (dose 37.5 g a.i/ha) was 35%; in the data set on barnyard grass (dose 75 g a.i/ha), 60%; with barnyard grass (dose 150 g a.i/ha), 70%; with barnyard grass (dose 300 g a.i/ha), 75%. Further, the “Corn (%) safety (crop damage)” value is 0% in the data set on corn (dose 37.5 g a.i/ha), 0% in the data set with corn (dose 75 g a.i/ha), 2% in the data set with corn (dose 150 g a.i/ha) and 5% in the data set on corn (setting [2]). For the same compound, the “Rice (%) safety (crop damage)” value in the data set with rice (dose 37.5 g a.i/ha) was found to be 30%; in the data set with rice (dose 75 g a.i/ha), 55%; in the data set with rice (dose 150 g a.i/ha), 75%; with rice (dose 300 g a.i/ha) it was 85%.
For `Cc1nn(Cc2c(S(C)(=O)=O)ccc(C(=O)c3c(C)nn(C)c3O)c2Cl)c(=O)o1` [Compound 58], the “inhibitory effect on corn (crop safety)” value in the data set with corn (setting [3]) is “no significant inhibitory effect”. For the same compound, the “Corn (%) safety (crop damage)” value in the data set with corn (dose 37.5 g a.i/ha), in the data set with corn (dose 75 g a.i/ha), with corn (dose 150 g a.i/ha) and in the data set on corn (setting [2]) was 0% each time. Further, in the data set on rice (setting [3]), the “inhibitory effect on rice (crop safety)” value was “no significant inhibitory effect”. In addition, the “Rice (%) safety (crop damage)” value worked out at 0% in the data set on rice (dose 37.5 g a.i/ha), 0% with rice (dose 75 g a.i/ha), 0% with rice (dose 150 g a.i/ha) and 5% with rice (dose 300 g a.i/ha).
